The subject of this assay is psoriatic lesion(s). Kind of assay: Pre-psoriatic rim topical administration and treatment of psoriasis. In kind it is in vivo. As to the method:
In one embodiment, a composition for topical administration was prepared using the peptide CGRP8-37 in a topical formulation at 20 μg/g. The effective range of the peptide in the composition can be between 0.00001 μg/g to […], depending on formulation and measured penetration parameters. The described composition was applied to an area at least partially around the psoriatic lesion(s), termed the pre-psoriatic rim, which was determined using well known laser Doppler flowmetry. […] 10 μg/g of the peptide was applied twice daily for 4 weeks. The composition was purposely not applied directly to the lesion. Without being held to a single theory, a novel local neural transport mechanism appears to be responsible for the effects observed by the pre-psoriatic rim administration resulting in treatment of psoriasis. Topical steroids are usually applied directly on lesions as is the convention for most topical treatments. Topical steroid molecules are much smaller (<500 Da) then CGRP8-37 (3100 Da) and therefore can more easily penetrate thick skin, topical steroids also have a side-effect on normal skin causing skin atrophy in some cases. That is why, for steroids and some other topical remedies e.g. tar (being irritating to normal skin), applying around the lesion is not recommended. […]

Where no end group is shown, it is not given here.

Take “CGRP8-37: CGRP derivative peptide, high affinity CGRP receptor antagonist; sequence SEQ ID NO:1 or SEQ ID NO:2; used in topical formulation (VTHRLAGLLSRSGGVVKNNFVPTNVGSKAF; ends and bridges not checked; UniProt P06881 90-119, looked up, fragment)”: where the note is “applied around the lesion, doses as low as 1 μg/g of topical formulation”, the “improvement at low dosage” value is “significant improvement”. In addition, for the setting “topical composition applied to pre-psoriatic rim, not directly to the lesion, 10 μg/g of the peptide twice daily for 4 weeks”, the “response of psoriatic lesion (plaque on right shoulder, FIGS. 8-10)” value was “clearing completely”.
